Assay results reported in US7754718B2 (priority 2004, dated 2010).

What was measured:
L526M/M550V (adr) HBV = experiment: Extracellular HBV DNA in lamivudine-resistant DM2 cells, real-time PCR; format: cell-based; conditions: Hepatitis B virus, 144 h, read-out: EC50 (μM) L526M/M550V (adr)
Text: (§1) Hep.G2.2.15 is a hepatoblastoma cell line stably transfected with a HBV genome (ayw strain) (Sells et al., 1987, Proc Natl Acad Sci USA. 84 (4):1005-1009). W10, a HepG2 cell line, was transfected with an adr HBV strain (Fu et al., 2000, Antimicrob Agents Chemother 44 (12): 3402-3407; Fu et al., 1999, Biochem Pharmacol. 57 (12): 1351-1359). These cell lines were used to assess the antiviral activity of helioxanthin and 22. Various concentrations of the drugs in minimal essential medium with Earle's salts (MEME) containing 10% fetal bovine serum (FBS) were tested in 6-day-old cultures. The drugs were left in the culture medium for 3 days, then the medium was removed and fresh medium containing the same concentration of the drugs was added. At the end of another 3-day period, the culture medium and cells were harvested to measure the HBV replication level. The Lamivudine resistant cell line DM2 (Fu et al., 2000, Antimicrob Agents Chemother 44 (12): 3402-3407) is also a hepatoblastoma cell line stably transfected with HBV genome (adr strain) which contains the L526M/M550V double mutation. The culture conditions of DM2 are the same as that of HepG.2.2.15.
(§2) Quantitative real-time PCR was used to determine the extracellular HBV copy number in the medium of DM2 cells with and without drug treatment. […] Quantification of the copy number was determined by comparing the sample amount to a standard curve generated in each run. […]
(§3) W10 and DM2 cells (Fu et al., 2000, Antimicrob Agents Chemother 44 (12): 3402-3407), were used to evaluate the effects of these two compounds on wt HBV (adr strain) and its lamivudine-resistant HBV. […] After a 6-day treatment, the amount of HBV DNA, which was secreted into the medium, was evaluated using real-time PCR (FIG. 3). […] The real-time PCR method was validated by comparing the results of intracellular HBV DNA levels obtained from the Southern blot hybridization analysis to the results from real-time PCR that measured HBV DNA copies in the HepG2.2.15 medium with or without treatment of lamivudine. […]

HBV = experiment: In vitro antiviral assay for HBV (Table 1); format: cell-based, Hepatitis B virus; conditions: Hepatitis B virus, read-out: Antiviral Activities (EC50, μM) HBV
CEM cells = experiment: Cell cytotoxicity assay on CEM cells; format: cell-based; conditions: Homo sapiens, CCRF-CEM, concentration that inhibited 50% of cell growth, read-out: IC50 (μM) CEM
Summary of the method: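 MT-2 and CEM cytotoxicity determined per previously reported procedures. HepG2 cells seeded at 10^4 cells/ml in MEME + 10% FBS, compound added on day 2 for 3 further days at 37° C. Viable layer stained with methylene blue, solubilized in 1% sarcosyl, A595 read.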

HepG2 cells = experiment: Cell cytotoxicity assay on HepG2 cells, methylene blue staining; format: cell-based; conditions: Homo sapiens, 72 h, concentration that inhibited 50% of cell growth, 3 days
Experimental: Cytotoxicities of test compounds on MT-2 (Mellors et al., 1992 Mol. Pharmacol. 41:446-451) and CEM (Grove et al., 1995, Cancer Res. 55:3008-3011) cells were determined according to the previously reported procedures. Hepg2 cells were seeded at a density of 10^4 cells/ml/well in 24-well plates and cultured in MEME supplemented with 10% FBS at 37° C. and 5% CO2. Each test compound at different concentrations was added on the second day of the culture and the cells were incubated for another 3 days. At the end of the incubation period, the medium was removed and 0.5 ml of 0.5% methylene blue in 50% ethanol (v/v) was added to each well and set at room temperature for 30-60 minutes. The methylene blue was removed; the plates were washed with water and allowed to air dry. Once dry, 1% sarcosyl was added to dissolve the stained cell layer. The absorbance at 595 nm was measured with a microplate reader (Molecular Devices Corp. Sunnyvale, Calif.). The cytotoxicity to CEM cell was calculated as described previously (Grove et al., 1995, Cancer Res. 55 (14): 3008-3011).

wt (adr) HBV = experiment: Extracellular HBV DNA in W10 cells, real-time PCR; format: cell-based; conditions: Hepatitis B virus, 144 h, 6-day treatment, HBV DNA in medium by real-time PCR
Text: as §1, §2, §3

Row | SMILES | EC50 (L526M/M550V (adr) HBV) [µM] | EC50 (HBV) [µM] | IC50 (CEM cells) [µM] | IC50 (HepG2 cells) [µM] | EC50 (wt (adr) HBV) [µM]
1 | Nc1ccn([C@@H]2CS[C@H](CO)O2)c(=O)n1 [Compound 3TC, (−)-(2R,5S)-1-[2-(hydroxymethyl)oxathiolan-5-yl]cytosine] | > 3 | 0.02 | > 100 | > 100 | 0.02 ± 0.03
2 | COc1ccc(-c2c3c(cc4ccc5c(c24)OCO5)C(=O)NC3)cc1OC [Compound 22, 10-(3,4-Dimethoxy-phenyl)-8,9-dihydro-1,3-dioxa-8-aza-dicyclopenta[a,g]naphthalen-7-one] | 0.0003 | 0.9 | 3.6 ± 1.2 | 2 | 0.004
3 | O=C1OCc2c1cc1ccc3c(c1c2-c1ccc2c(c1)OCO2)OCO3 [Compound 2, 10-Benzo[1,3]dioxol-5-yl-9H-furo[3′,4′:6,7]naphtho[1,2-d][1,3]dioxol-7-one, reference compound] | 0.1 | 1 | 32 | 6 | 0.4
